Results published in patent US20260250318A1, “COMPOSITIONS AND METHODS FOR CROSSING THE BLOOD BRAIN BARRIER” (VOYAGER THERAPEUTICS, INC., priority 2022, published 2026).

Key:
Settings in all cases: synthetic library passage 3, intravenous, relative to wild-type AAV9
[1] = test system: brain, spinal cord, and DRG of the NHPs; experiment: NGS fold enrichment of synthetic library (passage 3) in NHPs, first cross-species screen; assay type: in vivo, cynomolgus macaques (Macaca fascicularis)
Summary of the method: (§1)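 Synthetic capsid library (passage 3) was given intravenously […] to NHPs aged 2-4 years and to BALB/c and C57Bl/6 mice (n=3 each, 6-8 weeks). After about 28 days in vivo, tissue RNA was RT-PCR amplified and NGS-sequenced; values are fold enrichment per variant relative to wild-type AAV9.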

brain [2] = experiment: NGS fold enrichment of synthetic library (passage 3) in BALB/c mice, first cross-species screen; assay type: in vivo
Summary of the method: as §1

brain [3] = experiment: NGS fold enrichment of synthetic library (passage 3) in C57Bl/6 mice, first cross-species screen; assay type: in vivo
Summary of the method: as §1

[4] = RNA from spinal cord of NHPs, NGS
[5] = RNA from brain of BALB/c mice, NGS
[6] = RNA from brain of C57Bl/6 mice, NGS

| Sequence | Fold enrichment over AAV9 in the brain of NHPs ([1]; RNA NGS, brain of NHPs) | Fold enrichment over AAV9 in the spinal cord of NHPs ([1]; RNA NGS, spinal cord of NHPs) | Fold enrichment over AAV9 in the brain of Mice (BALB/c) (brain [2]; RNA NGS, brain of BALB/c mice) | Fold enrichment over AAV9 in the brain of Mice (C57Bl/6) (brain [3]; RNA NGS, brain of C57Bl/6 mice) | Fold enrichment over AAV9 in the brain of NHPs ([1]; RNA from brain of NHPs, NGS) | Fold enrichment over AAV9 in the spinal cord of NHPs [1, 4] | Fold enrichment over AAV9 in the brain of Mice (BALB/c) (brain [2]; [5]) | Fold enrichment over AAV9 in the brain of Mice (C57Bl/6) (brain [3]; [6]) |
| --- | --- | --- | --- | --- | --- | --- | --- | --- |
| GSGMIIASMQNQQT | 1.469 fold | 6.722 fold | 0.415 fold | 1.135 fold | – | – | – | – |
| GSGMLTHTLQNQQT | 2.246 fold | 2.272 fold | 0.199 fold | 0.496 fold | – | – | – | – |
| GSGMPASRLQNQQT | 1.117 fold | 1.689 fold | 0.372 fold | 0.790 fold | – | – | – | – |
| GSGMPIRNVQNQQT | 1.584 fold | 0.138 fold | 0.631 fold | 0.684 fold | – | – | – | – |
| GSGMPQSHIQNQQT | 3.289 fold | 11.609 fold | 0.334 fold | 0.514 fold | – | – | – | – |
| GSGMPVILGQNQQT | 2.005 fold | 0.150 fold | 0.287 fold | 0.840 fold | – | – | – | – |
| GSGMRQAGVQNQQT | 1.032 fold | 0.811 fold | 0.775 fold | 0.736 fold | – | – | – | – |
| GSGMSPSTLQNQQT | 2.216 fold | 3.053 fold | 0.153 fold | 0.318 fold | – | – | – | – |
| GSGNMHASRQNQQT | – | – | – | – | 1.238 fold | 3.878 fold | 0.687 fold | 0.782 fold |
| GSGNPHVRNQNQQT | 1.112 fold | 0.873 fold | 0.755 fold | 0.732 fold | – | – | – | – |
| GSGNPVSHLQNQQT | 1.121 fold | 1.037 fold | 0.310 fold | 0.583 fold | – | – | – | – |
| GSGNYRDHEQNQQT | – | – | – | – | 1.193 fold | 7.389 fold | 0.222 fold | 0.287 fold |
| GSGPILGQLQNQQT | 2.097 fold | 2.058 fold | 0.123 fold | 0.470 fold | – | – | – | – |
| GSGPQSHTGQNQQT | 1.757 fold | 9.490 fold | 0.447 fold | 0.958 fold | – | – | – | – |
| GSGPSISHGQNQQT | 1.000 fold | 0.000 fold | 0.665 fold | 0.614 fold | – | – | – | – |
| GSGPWSAGLQNQQT | 1.067 fold | 0.947 fold | 0.539 fold | 0.700 fold | – | – | – | – |
| GSGQAAKSSQNQQT | 1.036 fold | 0.681 fold | 0.737 fold | 0.778 fold | – | – | – | – |
| GSGQALLSTGNQQT | – | – | – | – | 1.377 fold | 0.847 fold | 0.370 fold | 0.536 fold |
| GSGQALSSSGNQQT | – | – | – | – | 1.351 fold | 6.860 fold | 0.931 fold | 0.894 fold |
| GSGQARAHRGNQQT | 1.017 fold | 0.000 fold | 0.386 fold | 0.254 fold | – | – | – | – |

| Sequence | Fold enrichment over AAV9 in the brain of NHPs ([1]; RNA NGS, brain of NHPs) | Fold enrichment over AAV9 in the spinal cord of NHPs ([1]; RNA NGS, spinal cord of NHPs) | Fold enrichment over AAV9 in the brain of Mice (BALB/c) (brain [2]; RNA NGS, brain of BALB/c mice) | Fold enrichment over AAV9 in the brain of Mice (C57Bl/6) (brain [3]; RNA NGS, brain of C57Bl/6 mice) | Fold enrichment over AAV9 in the brain of NHPs ([1]; RNA from brain of NHPs, NGS) | Fold enrichment over AAV9 in the spinal cord of NHPs [1, 4] | Fold enrichment over AAV9 in the brain of Mice (BALB/c) (brain [2]; [5]) | Fold enrichment over AAV9 in the brain of Mice (C57Bl/6) (brain [3]; [6]) |
| --- | --- | --- | --- | --- | --- | --- | --- | --- |
| GSGQASSKSANQQT | – | – | – | – | 1.339 fold | 1.138 fold | 0.175 fold | 0.500 fold |
| GSGQDMKQHHNQQT | 1.501 fold | 1.638 fold | 0.239 fold | 0.358 fold | – | – | – | – |
| GSGQDRHIVQNQQT | 1.527 fold | 11.068 fold | 0.162 fold | 0.285 fold | – | – | – | – |
| GSGQDRNIVQNQQT | 2.112 fold | 0.229 fold | 0.632 fold | 0.454 fold | – | – | – | – |
| GSGQDVTKTGNQQT | – | – | – | – | 1.173 fold | 4.523 fold | 0.035 fold | 0.531 fold |
| GSGQEHRSLANQQT | 1.046 fold | 0.000 fold | 0.344 fold | 0.507 fold | – | – | – | – |
| GSGQFTNAGMNQQT | 2.969 fold | 0.936 fold | 0.418 fold | 0.565 fold | – | – | – | – |
| GSGQGIHSSVNQQT | 1.981 fold | 4.873 fold | 0.634 fold | 0.632 fold | – | – | – | – |
| GSGQGPQERGNQQT | 1.702 fold | 1.269 fold | 0.313 fold | 0.846 fold | – | – | – | – |
| GSGQHAAPGHNQQT | – | – | – | – | 1.195 fold | 5.999 fold | 0.199 fold | 0.600 fold |
| GSGQHLPLLGNQQT | – | – | – | – | 1.175 fold | 1.739 fold | 0.347 fold | 0.519 fold |
| GSGQHSNQHVNQQT | – | – | – | – | 1.192 fold | 1.453 fold | 0.558 fold | 0.955 fold |
| GSGQHSPHALNQQT | 1.064 fold | 1.412 fold | 0.573 fold | 0.885 fold | – | – | – | – |
| GSGQHVSVANNQQT | 1.029 fold | 5.734 fold | 0.577 fold | 0.974 fold | – | – | – | – |
| GSGQIKGKMDNQQT | 1.654 fold | 2.601 fold | 1.012 fold | 1.065 fold | – | – | – | – |
| GSGQILHSVPNQQT | 1.752 fold | 1.316 fold | 0.240 fold | 0.398 fold | – | – | – | – |
| GSGQIRESMGNQQT | – | – | – | – | 1.270 fold | 1.676 fold | 0.523 fold | 0.833 fold |
| GSGQIRHSDQNQQT | 2.600 fold | 12.884 fold | 0.320 fold | 1.170 fold | – | – | – | – |
| GSGQIRQLVDNQQT | 1.657 fold | 5.529 fold | 0.272 fold | 0.314 fold | – | – | – | – |
| GSGQIVSTQTNQQT | 1.456 fold | 1.103 fold | 0.512 fold | 0.453 fold | – | – | – | – |
